Entries after “also recorded” stand apart in the source; their conditions may differ.

In data set [1] the target is T1, Aβ42 (Homo sapiens, UniProt P05067).
T1 construct: Cleavage of APP results in several Aβ isoforms; The predominant species are Aβ42 and Aβ40; purchased Anaspec (Fremont, Calif., USA)
As to the kind of experiment: Seed-catalyzed kinetic assay, Aβ42. In kind it is biochemical. The note with it: equimolar ratio, preformed fibers (seeds). On the procedure:
Seeds of Aβ40/Aβ42 were prepared by incubating 200 μM of Aβ40/Aβ42 in phosphate buffer at room temperature. The samples were aged for 48 h and the formation of fibers was confirmed by TEM and ThT before storage at −20° C. until use. For the aggregation of Aβ40, 10% (based on the monomeric Aβ40, v/v) seeds were added along with ThT in phosphate buffer to the 96-well plate. The aggregation was initiated by the addition of monomeric Aβ40 followed by gentle mixing. The process was similar in the case of Aβ42 except that the seed concentration was 5% (based on the monomeric Aβ42, v/v).
The seeds were generated by aging 200 μM Aβ peptides for 48 h in phosphate buffer with occasional vortexing. The concentration of seeds was calculated based on the monomeric concentration of Aβ.

Data set [2] deals with IAPP mediated toxicity in rat INS-1 cells. As to the kind of experiment: IAPP mediated toxicity in INS-1 cells. In kind it is cell-based. Conditions: equimolar ratio.
The target of data set [3] is T1, Aβ42. The data set can be described thus: Transmission electron microscopy (TEM) of Aβ42. In kind it is biochemical. Conditions: for Aβ42 oligomers seen by TEM after addition to preformed oligomers: 5 μM Aβ42, compound added to preformed oligomers (2 h), equimolar. The protocol:
Aβ42 (5 μM) was incubated in phosphate buffer in the absence and presence of the compounds of the invention at various time intervals and stoichiometric ratios. Aliquots of these samples were then applied to glow-discharged carbon-coated 300-mesh copper grids for 2 min and dried. Grids were negatively stained with uranyl acetate (2%, w/v) and dried. Micrographs of grids were examined on a Phillips CM12 Cryoelectron Microscope equipped with Gatan 4k×2.7k CCD camera at 120-kV accelerating voltage.

Data set [4] concerns the target T2, Aβ40 (Homo sapiens, UniProt P05067).
T2 construct: Cleavage of APP results in several Aβ isoforms; The predominant species are Aβ42 and Aβ40; purchased Anaspec (Fremont, Calif., USA)
The data set can be described thus: Isothermal titration calorimetry (ITC). In kind it is binding. On the procedure: ITC experiments were performed in a NANO-ITC (TA instruments, New Castle, Del., USA). […] The heat associated with each injection was calculated by integrating each heat burst curve using NanoAnalyze software (New Castle, Del., USA). […] No parameter was constrained during the fitting. The data were extracted from the best fit after 10,000 iterations.
A general note: In ITC the heat of successive injections is recorded.

In data set [5] the target is T2, Aβ40. As to the kind of experiment: ThT-based kinetic assay of Aβ40 aggregation. Conditions: equimolar ratio. In kind it is biochemical. The protocol: Kinetic assays were conducted on a FlexStation 3 Multi-Mode Microplate reader from Molecular Devices (Sunnyvale, Calif., USA). Experiments were conducted in triplicate in a 96-well plate with a final volume of 200 μL per well. Every measurement was an average of 50 readings. The aggregation of an amyloidogenic peptide (Aβ40, Aβ42, or IAPP) was initiated by the addition of the peptide from a stock solution (in DMSO, 0.5-1 mM) to phosphate buffer. The final concentration of each peptide was different based on their aggregation. The stoichiometry of ThT dye for each peptide was 0.5:1 (ThT:peptide). Peptide aggregation was monitored by ThT fluorescence (λex=445 nm and λem=485 nm). The blank sample contained all the components of the peptide samples except the peptide. The sample data were processed by subtracting the fluorescence of the blank sample. The fluorescence intensity data was then normalized by setting the maximum value to 1.
Kinetic assays in the presence of the compounds of the invention were conducted under the same conditions. The small molecules were added from a stock solution (1 mM or 10 mM in DMSO) to keep the final concentration of DMSO less than 1.0% (v/v). […]
Kinetic profiles were processed using Origin (version 9.1). […] Each run was fit independently to extract the t50 (time required to reach 50% of the maximum fluorescence intensity). […]

For data set [6], the target named is T3, Nα-amino-terminal fluorescein-labeled Aβ40 (Homo sapiens, UniProt P05067).
T3 construct: fluorescein-labeled Aβ40 was purchased from Anaspec (Fremont, Calif., USA); purchased Anaspec (Fremont, Calif., USA)
As to the kind of experiment: Fluorescence titration. Conditions: 20 mM NaPi, 1% TFE, pH 7.4; read-out: apparent binding affinity (app. Kd). On the procedure: N^α-amino-terminal fluorescein-labeled Aβ40 was purchased from Anaspec (Fremont, Calif., USA) and used without further purification. To ensure the monomeric state of N^α-amino-terminal fluorescein-labeled Aβ40, the peptide was treated similar to other peptides and stored at −80° C. in the dark until use. Fluorescence measurements were performed on a FlexStation 3 Multi-Mode Microplate reader from Molecular Devices (Sunnyvale, Calif., USA). Fluorescence titrations were conducted in triplicate in a 96-well plate with a final well volume of 200 μL. For fluorescence measurements, the fluorescein dye was excited at 492 nm and the spectra were recorded from 500 nm to 600 nm. […] The plot was fitted using a sigmoidal fit to extract the apparent binding affinity.

Data set [7] concerns the target T2, Aβ40. As to the kind of experiment: Transmission electron microscopy (TEM) of Aβ40. In kind it is biochemical.
Data set [8] concerns the target T1, Aβ42. The data set can be described thus: PICUP SDS-PAGE of Aβ42 oligomers. In kind it is biochemical. The note with it: 5 μM Aβ42, equimolar ratio. On the procedure: The reaction mixture was irradiated for 30 s using filament lamp (power=150 W) by keeping it 20 cm away from the bottom of the reaction tubes. The cross-linking reaction was then quenched immediately with dithiothreitol (1 M, 1 μL, Sigma Aldrich, St. Louis, Mo., USA). The samples were incubated on ice for 15 min. followed by the addition of SDS buffer. The samples were heated at 90° C. for 5 min. and then centrifuged. […] The samples were applied to Nu-PAGE electrophoresis in 12% Bis-Tris gels with SDS-PAGE buffer. The protein samples were stained with a silver stain kit from Sigma Aldrich (St. Louis, Mo., USA).

T1 sequence (P05067 672-713 limits assumed): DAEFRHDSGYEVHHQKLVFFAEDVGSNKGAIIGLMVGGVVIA
T2 sequence (P05067 672-711 limits assumed): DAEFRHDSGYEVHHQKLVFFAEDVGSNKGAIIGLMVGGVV
T3 sequence (P05067 672-711 limits assumed): as above

For `COC(=O)c1ccc(NC(=O)c2ccc(NC(=O)c3ccc(NC(=O)c4ccc([N+](=O)[O-])c(OCC(C)C)n4)c(OCc4ccccc4)n3)c(OCC(=O)O)n2)c(OCC(=O)O)n1` [ADH-31], the “effect on seed-catalyzed Aβ42 fibrillation” value in data set [1] is reported as “completely suppressed”. Further, the cell viability in data set [2] (IAPP, INS-1 cells, IAPP alone 65±6%) worked out at 98±4%. The “Aβ42 oligomers seen by TEM after addition to preformed oligomers” value in data set [3] was “No formation of Aβ42 oligomers”. Further, the “fibers of Aβ42 seen by TEM” value in data set [3] (5 μM Aβ42, equimolar ratio, after 12 h) is on record as “no fibers were recorded”.

As for `COC(=O)c1ccc(NC(=O)c2ccc(NC(=O)c3ccc([N+](=O)[O-])c(OCc4ccccc4)n3)c(OCCCN)n2)c(OCCCN)n1` [ADH-41], the Kd in data set [4] was found to be 700 ± 100 nM; in data set [6], 1400 ± 200 nM. Further, the “effect on Aβ40 aggregation (ThT)” value in data set [5] is given as “decreased significantly; also recorded: completely arrested”. In addition, the “effect on seed-catalyzed Aβ42 fibrillation” value in data set [1] is given as “completely arrested; also recorded: completely inhibits; also recorded: completely suppressed”. Further, the “fiber formation of Aβ40 seen by TEM” value in data set [7] (Aβ40 incubated with ADH-41, after 5 days) is on record as “scant evidence of fiber formation”. Also, the “aggregates of Aβ40 seen by TEM” value in data set [7] (equimolar ratio) is on record as “No aggregates were visible”. For the same compound, the “Aβ40 species seen by TEM” value in data set [7] (substoichiometric ratio 1:0.1 (Aβ40:ADH-41)) is “short protofibrils”. Also, the “higher order oligomers of Aβ42 (PICUP, SDS-PAGE)” value is recorded as “sparse populations” in data set [8] (24 h and 36 h); “no higher order oligomers” in data set [8] (up to 12 h). Besides, the “effect on IAPP mediated toxicity” value in data set [2] (rat INS-1 cells) is listed as “did not have any effect; also recorded: no effect”. Further, in data set [3] (5 μM Aβ42, 1:0.1 (Aβ42:ADH-41), 24 h), the “fibers of Aβ42 seen by TEM” value is reported as “sparse population of fibers”. Moreover, in data set [3] (5 μM Aβ42, 1:1 or 1:0.5 (Aβ42:ADH-41), even after 2 days), the “oligomers/fibers of Aβ42 seen by TEM” value is on record as “no formation of oligomers/fibers”. In addition, the “Aβ42 oligomers seen by TEM after addition to preformed oligomers” value in data set [3] is “No formation of Aβ42 oligomers”. Also, in data set [3] (20 μM Aβ42 + seeds, equimolar ratio, 24 h), the “elongated fibers seen by TEM in seed-catalyzed Aβ42 aggregation” value is recorded as “no elongated fibers were observed”.

A word on the cell viability: it is a per cent measure of how many cells are alive, often set against a control.

Values taken from patent US10723716B2, “Alpha-helix mimetics as modulators of Abeta self-assembly” (New York University, priority 2016, dated 2020).
